Legend:
[1] = test system: tumor derived from a myelogenous leukemia patient having a mutation in the SF3B1 gene; test: Antitumor action on tumor-bearing model derived from patient with acute myeloid leukemia having SF3B1 gene mutation; format: in vivo; conditions: 50 mg/kg orally twice a day on 2 days per week for 2 weeks; NOG female mice; tumor volume
Description: A tumor derived from a myelogenous leukemia patient having a mutation in the SF3B1 gene was subcutaneously transplanted into mice to establish a clinical tumor model capable of undergoing in vivo passage. A fragment of the tumor was subcutaneously transplanted into a six-week-old NOG female mice (CLEA Japan, Inc.) with a trocar, the tumor diameter of the developed tumor was measured 52 days after the transplantation, and the tumor volume was calculated in accordance with the following expression. Tumor volume=long diameter×short diameter×short diameter×(½)
Individuals with a tumor developed to a tumor volume of about 200 mm^3 were selected, and six mice per group were used for the experiment. A 0.5% methylcellulose solution (Wako Pure Chemical Industries, Ltd.) suspension of the test compound was orally administered at a dose of 50 mg/kg (10 mL/kg) twice a day on 2 days per week for 2 weeks. The tumor volume was chronologically measured on the day before the start of administration and every 3 to 4 days, the tumor diameter was finally measured on the day after completion of administration for 14 days, and the tumor volume was calculated.
The tumor growth in the test compound administration group with respect to the control administration group was calculated as a T/C value in accordance with the following expression. […]

SK-MEL-28-Control cells = test: Growth inhibitory action on SK-MEL-28-Control cells (CellTiter-Glo); format: cell-based, human; conditions: 125 nM, 3 days
From the text: Human MYC cDNA was inserted downstream of the TRE of a lentiviral vector (modified pTRIPZ: GE Healthcare) having a tetracycline responsive sequence (TRE) in the promoter region. The produced virus was infected with human malignant melanoma cells SK-MEL-28 (purchased from ATCC) to establish SK-MEL-28 cells (SK-MEL-28-MYC) inducing expression of MYC in the presence of doxycycline (Takara Bio Inc.) which is a tetracycline derivative. SK-MEL-28 cells (SK-MEL-28-Control) having an empty vector with only modified pTRIPZ were also established. 20 μL/well of 2.5 μg/mL doxycycline-containing medium was added to a 96-well plate, and 80 μl/well (1,000 cells/well) of a cell suspension was added, and cultured at 37° C. for 2 days in a 5% CO2 gas incubator. Thereafter, 100 μl of a 250 nM test compound solution was added (final concentration: 125 nM), and the mixture was further cultured for 3 days. 50 µl/well of a CellTiter-Glo™ Luminescent Cell Viability Assay reagent (Promega Corporation) was added to a 96-well plate, the amount of luminescence was measured by a luminometer, and the amount of remaining ATP was determined as a cell amount. The inhibition ratio (%) of cell growth by the test compound was calculated in accordance with the following expression. Inhibition ratio (%)=(1−(amount of luminescence of test compound)÷(amount of luminescence of control group))×100

HCT116 cells = test: Growth inhibitory activity using HCT116 cells (Cell Titer-Glo); format: cell-based, human; conditions: Homo sapiens, HCT-116, 72 h, compound 1 μM, 3 days, read-out: Cell growth inhibition ratio at compound concentration of 1 μM
Description: HCT 116 cells (ATCC) were seeded in a 384-well plate at a density of 6×10^2 cells/well, and cultured overnight in a cell culture medium McCoy's 5A (Thermo Fisher Scientific) containing 10% FBS (fetal bovine serum) and 1% penicillin/streptomycin. The dissolved test compound was added in the cell medium, and the cell medium was left standing in a CO2 incubator (37° C.) for 3 days. A Cell Titer-Glo solution (Promega Corporation) was added, the mixture was stirred at room temperature for 10 minutes, and the emission value was measured by Envision (PerkinElmer). The inhibition ratio (%) of HCT116 cell growth by the test compound was calculated in accordance with the following expression. Inhibition ratio (%)=(1−(count of test compound−blank)÷(control−blank))×100
The count of the HCT116 cell suspension without addition of the compound was described as a control, and the count without addition of the compound and addition of HCT116 cells was described as a blank. The concentration at which the inhibition ratio was 50% was defined as an IC50 value.

MDM4 protein = MDM4 protein amount in HCT116 cells (western blot); format: cell-based, human; conditions: 300 nM, 16 hours, relative to control group
Description: 1000 μl (8,0000 cells/well) of a cell suspension of human colon adenocarcinoma cells HCT116 (purchased from ATCC) was seeded in a 12-well plate, and cultured at 37° C. for 2 days in a 5% CO2 gas incubator. The test compound solution was added to a final concentration of 300 nM, and the mixture was cultured for 16 hours. The plate was washed with PBS, a protein extract (10% glycerol, 1% sodium dodecyl sulfate, 62.5 mM Tris-HCl (pH: 7.5)) was then added to dissolve the cells, and the solution was treated at 95° C. for 5 minutes. Thereafter, the amount of protein was determined using BCA Protein Assay Kit (Thermo Fisher Scientific).
The amount of the protein in each sample was adjusted, SDS-PAGE was then performed, and the protein was transferred to a PVDF membrane using an iBlot (registered trademark) gel transfer system (Invitrogen). […] The membrane was washed in the same procedure as described above, a phosphorylated CLK2 protein, a MDM4 protein, a p53 protein and a p21 protein each labeled with an antibody were then made chemiluminescent using ImmunoStar ZETA (Wako Pure Chemical Industries, Ltd.), and luminescence was detected with LAS-3000 Image Analyzer (Fujifilm Corporation). The luminescence intensity was determined using Multi Gauge Ver. 3.1 (Fujifilm Corporation), and quantified. […]

Structure (SMILES): COc1ncnn2ccc(-c3cnc4nc(C)n(Cc5nnc([C@@H](C)F)o5)c4c3)c12 [Example 286, 1-((5-((1R)-1-fluoroethyl)-1,3,4-oxadiazol-2-yl)methyl)-6-(4-methoxypyrrolo[2,1-f][1,2,4]triazin-5-yl)-2-methyl-1H-imidazo[4,5-b]pyridine]
- T/C (%) [1]: −30.4%
- Inhibition ratio (%) of cell growth, Doxycycline (+) (SK-MEL-28-Control cells; Doxycycline (+)): 35.7%
- Inhibition ratio (%) of cell growth, Doxycycline (−) (SK-MEL-28-Control cells; Doxycycline (−)): 34.4%
- inhibition at 1 µM (HCT116 cells): 95%
- Residual ratio (MDM4) (MDM4 protein): 43.6%

Reference: US10577382B2, “Fused heterocyclic compound” (TAKEDA PHARMACEUTICAL COMPANY LIMITED, priority 2016, dated 2020)
